Results from patent publication US5905068A, “Retroviral protease inhibiting compounds” (Abbott Laboratories, priority 1996, dated 1999).
pEC50: −log10 of the molar value.

What was measured:
[1] = molecular target: HIV-1 protease (Human immunodeficiency virus type 1 group M subtype B, UniProt P04585); experiment: Fluorogenic Assay for Screening Inhibitors of HIV Protease; details: pH 4.5
[2] = Cytotoxicity in uninfected MT4 cells (MTT); type: cell-based; details: human, 5 days, n=four duplicate determinations, read-out: CTC50 (50% cytotoxicity concentration)
Protocol: The anti-HIV activity of the compound of the invention was determined in MF4 cells according to the following procedure: MT4 cells were infected with cell-free supernatant of HIVIIIB (previously frozen with known 50% tissue culture infectious dose (TCID50) at 0.003 multiplicity of infection (MOI)) for one hour. After one hour infection, cells were washed twice to remove residual viruses, resuspended in culture media and seeded into 96-well tissue culture plates at 1×10^4 cells per well with various half-log dilutions of compounds. Uninfected cells were included a toxicity and cell controls. […] All assay plates were incubated in a 37° C. incubator for 5 days. […] SDS (20%) with 0.02N HCl in water was added at 50 μL per well to lyse cells. Plates were incubated overnight for complete cell lysis and then read on a microtiter plate reader at 570/650 nm wavelengths to determine cell optical density (O.D.). Raw data was analysed for percent inhibition by the following formula: [formula]
The 50% cytotoxicity concentration (CTC50) was calculated using uninfected MT4 cells

[3] = tested on: HIVIIIB; experiment: Antiviral Activity: anti-HIV activity in MT4 cells infected with HIVIIIB (MTT); type: cell-based; details: Human immunodeficiency virus 1, 120 h, MOI 0.003, 5 days, n=four duplicate determinations
Protocol: The anti-HIV activity of the compound of the invention was determined in MF4 cells according to the following procedure: MT4 cells were infected with cell-free supernatant of HIVIIIB (previously frozen with known 50% tissue culture infectious dose (TCID50) at 0.003 multiplicity of infection (MOI)) for one hour. After one hour infection, cells were washed twice to remove residual viruses, resuspended in culture media and seeded into 96-well tissue culture plates at 1×10^4 cells per well with various half-log dilutions of compounds. Uninfected cells were included a toxicity and cell controls. RPMI 1640 media (GIBCO) with 10% fetal bovine serum was used as culture media. Various concentrations (50%, 25% and 12.5%) of human serum (SIGMA) were added to culture media resulting in final concentrations of 60%, 35% and 22.5% total serum. All assay plates were incubated in a 37° C. incubator for 5 days. The compound 3-[4,5-dimethylthiozol-2-yl]-2,5-diphenyltetrazolium bromide (MTT, SIGMA, 5 mg .mL stock in PBS) was then added to all wells at 25 μL per well and incubated for 4 hours. SDS (20%) with 0.02N HCl in water was added at 50 μL per well to lyse cells. Plates were incubated overnight for complete cell lysis and then read on a microtiter plate reader at 570/650 nm wavelengths to determine cell optical density (O.D.). Raw data was analysed for percent inhibition by the following formula: [formula]
The 50% effective concentration (EC50) was calculated by the median effect equation (Chou, 1975, Proc. Int. Cong. Pharmacol. 6th p. 619) to determine the efficacy of compound. The 50% cytotoxicity concentration (CTC50) was calculated using uninfected MT4 cells
Under these conditions, the data of Table 2 was obtained (n=four duplicate determinations).

inhibition at 0.0005 µM [1] [%]	pEC50 [3]	inhibition at 0.0022 µM [1] [%]	inhibition at 0.0013 µM [1] [%]	SMILES	CC50 at 120 h [2] [µM]
50	5.93			Cc1cccc(C)c1OCC(=O)N[C@@H](Cc1ccccc1)[C@@H](O)C[C@H](Cc1ccccc1)NC(=O)O[C@@H]1CCSC1(C)C [Example 32, (2S,3S,5S)-2-(2,6-Dimethylphenoxyacetyl)amino-5-(3R-2,2-dimethyl-tetrahydrothienyloxycarbonyl)amino-1,6-diphenyl-3-hydroxyhexane]	> 100
64	6.70			O=C(N[C@@H](Cc1ccccc1)C[C@H](O)[C@H](Cc1ccccc1)NC(=O)c1ccc(O)cc1)O[C@H]1CO[C@H]2OCC[C@H]21 [Example 64, (2S,3S,5S)-2-(4-Hydroxy-benzoyl)amino-5-((3R,3aS,6aR)-bis-tetrahydrofuran-3-yl-oxycarbonyl)amino-1,6-diphenyl-3-hydroxyhexane]	> 100
87	7.39			Cc1cccc(C)c1OCC(=O)N[C@@H](Cc1ccccc1)C[C@H](O)[C@H](Cc1ccccc1)NC(=O)O[C@H]1CO[C@H]2OCC[C@H]21 [Example 5, (2S,3S,5S)-5-(2,6-Dimethyl-phenoxyacetyl)amino-2-((3R,3aS,6aR)-bis-tetrahydrofuran-3-yl-oxycarbonyl)amino-1,6-diphenyl-3-hydroxyhexane]	> 100
74	7.49			Cc1cc(C)c(OCC(=O)N[C@@H](Cc2ccccc2)C[C@H](O)[C@H](Cc2ccccc2)NC(=O)O[C@H]2CO[C@H]3OCC[C@H]32)c(C)c1N [Example 4, (2S,3S,5S)-5-(2,4,6-Trimethyl-3-amino-phenoxyacetyl)amino-2-((3R,3aS,6aR)-bis-tetrahydrofuran-3-yl-oxycarbonyl)amino-1,6-diphenyl-3-hydroxyhexane]	41
60	6.77			Cc1cc(N)cc(C)c1OCC(=O)N[C@@H](Cc1ccccc1)C[C@H](O)[C@H](Cc1ccccc1)NC(=O)O[C@@H]1CO[C@@H]2OCC[C@@H]21 [Example 2, (2S,3S,5S)-5-(2,6-Dimethyl-4-amino-phenoxyacetyl)amino-2-((3S,3aR,6aS)-bis-tetrahydrofuran-3-yl-oxycarbonyl)amino-1,6-diphenyl-3-hydroxyhexane]	90
82	7.26			Cc1nc(CN(C)C(=O)N[C@H](C(=O)N[C@@H](Cc2ccccc2)C[C@H](O)[C@H](Cc2ccccc2)NC(=O)O[C@@H]2CO[C@@H]3OCC[C@@H]32)C(C)C)cs1 [Example 47, (2S,3S,5S)-5-(N-(N-((N-Methyl-N-((2-methyl-4-thiazolyl)methyl)amino)carbonyl)-L-valinyl)amino)-2-((3S,3aR,6aS)-bis-tetrahydrofuran-3-yl-oxycarbonyl)amino-1,6-diphenyl-3-hydroxyhexane]	> 100
84	6.35			Cc1cccc(C)c1OCC(=O)N[C@@H](Cc1ccccc1)[C@@H](O)C[C@H](Cc1ccccc1)NC(=O)O[C@@H]1CCS(=O)(=O)C1(C)C [Example 33, (2S,3S,5S)-2-(2,6-Dimethylphenoxyacetyl)amino-5-(3R-2,2-dimethyl-1,1-dioxy-tetrahydrothienyloxycarbonyl)amino-1,6-diphenyl-3-hydroxyhexane]	18.3
43	6.30			O=C(N[C@@H](Cc1ccccc1)C[C@H](O)[C@H](Cc1ccccc1)NC(=O)OC1COC2OCCC12)OCc1cncs1 (stereo partly drawn) [Example 40, (2S,3S,5S)-5-((5-Thiazolyl)methoxycarbonyl)amino-2-((3R,3aS,6aR), (3S,3aR,6aS)-bis-tetrahydrofuran-3-yl-oxycarbonyl)amino-1,6-diphenyl-3-hydroxyhexane]	> 100
52	5.96			Cc1cccc(C)c1OCC(=O)N[C@@H](Cc1ccccc1)[C@@H](O)C[C@H](Cc1ccccc1)NC(=O)OC1CCCSC1 (mixture of isomers) [Example 31, (2S,3S,5S)-2-(2,6-Dimethylphenoxyacetyl)amino-5-(3(R,S)-tetrahydrothiopyranyloxycarbonyl)amino-1,6-diphenyl-3-hydroxyhexane]	53.3
	5.95	50		Cc1c(O)cccc1C(=O)N[C@@H](Cc1ccccc1)[C@@H](O)C[C@H](Cc1ccccc1)NC(=O)O[C@@H]1CO[C@@H]2OCC[C@@H]21 [Example 60, (2S,3S,5S)-2-(3-Hydroxy-2-methyl-benzoyl)amino-5-((3S,3aR,6aS)-bis-tetrahydrofuran-3-yl-oxycarbonyl)amino-1,6-diphenyl-3-hydroxyhexane]	> 100
			50	Cc1cccc(C)c1OCC(=O)N[C@@H](Cc1ccccc1)[C@@H](O)C[C@H](Cc1ccccc1)NC(=O)OC1CCSC1C(C)C (stereo partly drawn) [Example 27, (2S,3S,5S)-2-(2,6-Dimethylphenoxyacetyl)amino-5-(3(R,S)-2(R,S)-isopropyl-tetrahydrothienyloxycarbonyl)amino-1,6-diphenyl-3-hydroxyhexane]	
91	8.10			Cc1cc(N)cc(C)c1OCC(=O)N[C@@H](Cc1ccccc1)[C@@H](O)C[C@H](Cc1ccccc1)NC(=O)O[C@H]1CO[C@H]2OCC[C@H]21 [Example 3, (2S,3S,5S)-2-(2,6-Dimethyl-4-amino-phenoxyacetyl)amino-5-((3R,3aS,6aR)-bis-tetrahydrofuran-3-yl-oxycarbonyl)amino-1,6-diphenyl-3-hydroxyhexane]	61
72	6.43			CC(C)[C@@H](NC(=O)N(C)Cc1cncs1)C(=O)N[C@@H](Cc1ccccc1)C[C@H](O)[C@H](Cc1ccccc1)NC(=O)O[C@H]1CO[C@H]2OCC[C@H]21 [Example 44, (2S,3S,5S)-5-(N-(N-((N-Methyl-N-((5-thiazolyl)methyl)amino)carbonyl)-D-valinyl)amino)-2-((3R,3aS,6aR)-bis-tetrahydrofuran-3-yl-oxycarbonyl)amino-1,6-diphenyl-3-hydroxyhexane]	> 100
91	7.21			Cc1cccc(C)c1OCC(=O)N[C@@H](Cc1ccccc1)[C@@H](O)C[C@H](Cc1ccccc1)NC(=O)O[C@H]1CO[C@H]2OCC[C@H]21 [Example 6, (2S,3S,5S)-2-(2,6-Dimethyl-phenoxyacetyl)amino-5-((3R,3aS,6aR)-bis-tetrahydrofuran-3-yl-oxycarbonyl)amino-1,6-diphenyl-3-hydroxyhexane]	> 100
70	7.09			Nc1ccc(Cl)c(C(=O)N[C@@H](Cc2ccccc2)[C@@H](O)C[C@H](Cc2ccccc2)NC(=O)O[C@H]2CO[C@H]3OCC[C@H]32)c1 [Example 62, (2S,3S,5S)-2-(3-Amino-6-chloro-benzoyl)amino-5-((3R,3aS,6aR)-bis-tetrahydrofuran-3-yl-oxycarbonyl)amino-1,6-diphenyl-3-hydroxyhexane]	> 100
68	6.19			O=C(N[C@@H](Cc1ccccc1)C[C@H](O)[C@H](Cc1ccccc1)NC(=O)c1cccc(O)c1)O[C@H]1CO[C@H]2OCC[C@H]21 [Example 66, (2S,3S,5S)-2-(3-Hydroxy-benzoyl)amino-5-((3R,3aS,6aR)-bis-tetrahydrofuran-3-yl-oxycarbonyl)amino-1,6-diphenyl-3-hydroxyhexane]	
